Measured values from ChEMBL document CHEMBL1938312, “Design and combinatorial synthesis of a novel kinase-focused library using click chemistry-based fragment assembly” (Bioorg Med Chem Lett, 2012).
Activity calls are given as the source filed them.

Key:
[1] = molecular target: T1, Inhibitor of nuclear factor kappa-B kinase subunit beta (Homo sapiens) (UniProt O14920); experiment: Inhibition of IKK-beta at 10 uM by colorimetric analysis
T1 sequence (whole entry): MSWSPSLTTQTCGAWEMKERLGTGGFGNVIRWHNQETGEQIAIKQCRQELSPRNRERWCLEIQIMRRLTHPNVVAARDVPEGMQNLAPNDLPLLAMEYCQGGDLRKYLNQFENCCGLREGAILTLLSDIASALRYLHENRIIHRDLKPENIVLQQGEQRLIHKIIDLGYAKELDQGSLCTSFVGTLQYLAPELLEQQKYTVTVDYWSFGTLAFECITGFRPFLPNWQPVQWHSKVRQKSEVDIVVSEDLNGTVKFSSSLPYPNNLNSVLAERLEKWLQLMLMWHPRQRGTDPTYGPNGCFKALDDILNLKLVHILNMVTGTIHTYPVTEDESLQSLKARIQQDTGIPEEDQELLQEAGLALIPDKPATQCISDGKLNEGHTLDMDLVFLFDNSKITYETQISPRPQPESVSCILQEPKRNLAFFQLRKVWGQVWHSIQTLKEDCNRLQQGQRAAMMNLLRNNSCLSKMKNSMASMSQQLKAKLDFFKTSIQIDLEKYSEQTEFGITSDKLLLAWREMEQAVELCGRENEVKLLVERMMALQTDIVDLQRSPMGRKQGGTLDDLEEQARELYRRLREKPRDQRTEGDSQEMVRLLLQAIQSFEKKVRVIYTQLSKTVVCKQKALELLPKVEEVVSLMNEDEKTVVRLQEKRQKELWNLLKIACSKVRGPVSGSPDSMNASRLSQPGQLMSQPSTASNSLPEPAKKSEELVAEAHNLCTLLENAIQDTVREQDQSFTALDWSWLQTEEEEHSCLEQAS

[2] = molecular target: T2, Serine/threonine-protein kinase Chk1 (Homo sapiens) (UniProt O14757); experiment: Inhibition of CHK1 at 10 uM by colorimetric analysis
T2 sequence (whole entry): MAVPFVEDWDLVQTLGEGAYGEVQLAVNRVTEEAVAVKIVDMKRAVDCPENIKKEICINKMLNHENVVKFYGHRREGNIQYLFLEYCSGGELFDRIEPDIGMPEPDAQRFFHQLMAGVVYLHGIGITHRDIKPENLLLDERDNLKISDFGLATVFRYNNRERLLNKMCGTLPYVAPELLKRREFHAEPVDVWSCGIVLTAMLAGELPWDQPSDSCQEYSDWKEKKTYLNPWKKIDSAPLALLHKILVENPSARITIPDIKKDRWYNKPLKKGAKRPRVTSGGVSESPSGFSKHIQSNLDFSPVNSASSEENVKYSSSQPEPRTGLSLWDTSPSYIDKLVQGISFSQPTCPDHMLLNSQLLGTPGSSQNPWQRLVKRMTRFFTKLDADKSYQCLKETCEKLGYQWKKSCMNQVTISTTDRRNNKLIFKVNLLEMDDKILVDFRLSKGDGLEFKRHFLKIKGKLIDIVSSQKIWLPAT

[3] = molecular target: T3, Calcium/calmodulin-dependent protein kinase type IV (Homo sapiens) (UniProt Q16566); experiment: Inhibition of CaMK4 at 10 uM by colorimetric analysis
T3 sequence (whole entry): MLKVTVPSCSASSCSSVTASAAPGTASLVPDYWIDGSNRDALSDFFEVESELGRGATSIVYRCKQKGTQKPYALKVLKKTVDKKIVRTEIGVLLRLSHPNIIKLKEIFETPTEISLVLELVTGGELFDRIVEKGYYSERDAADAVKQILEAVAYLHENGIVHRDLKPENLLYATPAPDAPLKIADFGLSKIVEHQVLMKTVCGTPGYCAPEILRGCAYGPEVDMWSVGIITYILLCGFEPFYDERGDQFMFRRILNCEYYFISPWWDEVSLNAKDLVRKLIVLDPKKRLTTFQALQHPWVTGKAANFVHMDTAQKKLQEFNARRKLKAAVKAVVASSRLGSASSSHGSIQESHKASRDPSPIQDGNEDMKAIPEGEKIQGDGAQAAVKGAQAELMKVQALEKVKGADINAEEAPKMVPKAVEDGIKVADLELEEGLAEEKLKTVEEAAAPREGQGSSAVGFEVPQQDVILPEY

[4] = molecular target: T4, Interleukin-1 receptor-associated kinase 4 (Homo sapiens) (UniProt Q9NWZ3); experiment: Inhibition of IRAK4 at 10 uM by colorimetric analysis
T4 sequence (whole entry): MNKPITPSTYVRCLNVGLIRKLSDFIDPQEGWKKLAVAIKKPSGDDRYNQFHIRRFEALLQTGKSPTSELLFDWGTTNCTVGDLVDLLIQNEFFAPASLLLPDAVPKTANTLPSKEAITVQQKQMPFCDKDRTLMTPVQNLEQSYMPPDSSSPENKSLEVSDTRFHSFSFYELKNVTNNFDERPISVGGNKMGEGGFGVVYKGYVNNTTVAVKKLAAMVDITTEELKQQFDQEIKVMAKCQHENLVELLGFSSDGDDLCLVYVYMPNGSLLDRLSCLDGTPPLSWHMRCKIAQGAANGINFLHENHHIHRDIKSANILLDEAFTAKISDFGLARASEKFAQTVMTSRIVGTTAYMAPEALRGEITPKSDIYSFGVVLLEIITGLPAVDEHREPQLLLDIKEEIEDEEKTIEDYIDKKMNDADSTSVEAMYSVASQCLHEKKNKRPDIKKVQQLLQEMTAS

[5] = molecular target: Mitogen-activated protein kinase 1 (Homo sapiens) (UniProt P28482); experiment: Inhibition of Erk2 at 10 uM by colorimetric analysis
Sequence of Mitogen-activated protein kinase 1 (Homo sapiens) (P28482 whole entry): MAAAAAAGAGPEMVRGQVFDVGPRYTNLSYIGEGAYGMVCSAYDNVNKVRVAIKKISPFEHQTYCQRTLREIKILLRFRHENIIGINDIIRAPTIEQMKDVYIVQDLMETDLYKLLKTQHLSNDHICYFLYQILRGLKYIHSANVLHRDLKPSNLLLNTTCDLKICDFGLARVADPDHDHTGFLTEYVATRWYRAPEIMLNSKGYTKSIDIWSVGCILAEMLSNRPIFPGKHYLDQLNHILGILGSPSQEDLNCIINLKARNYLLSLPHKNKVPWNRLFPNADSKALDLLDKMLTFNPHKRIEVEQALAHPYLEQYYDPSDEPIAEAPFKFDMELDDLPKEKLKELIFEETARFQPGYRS

Measured: inhibition

Clc1cccc(-n2cc(-c3ccncc3)nn2)c1
active: [1] | [2] | [3] | [4] | [5]

Clc1ccc(-n2nncc2-c2ccncc2)cc1
active: [1] | [2] | [3] | [4] | [5]

Clc1ccc(-n2cc(-c3ccncc3)nn2)cc1
active: [1] | [2] | [3] | [4] | [5]

Clc1cccc(-n2nncc2-c2ccncc2)c1
active: [1] | [2] | [3] | [4] | [5]
